Measurements: US20040043403A1, “Process for determining the biological activity of epidermal growth factor receptor tyrosine kinase inhibitors” (priority 2000, published 2004)

What was measured:
A431 cells [1] = experiment: UniGEM 1 cDNA array expression profile of A431 cells; format: cell-based, human; details: 24 hours
Protocol: (§1) The following tissue culture cells are chosen because of their EGFR expression status (Table 1). EGFR expression is measured by Western blotting, using anti-EGFR monoclonal antibodies from Transduction Labs (Lexington, Ky.). The cell lines are obtained from the ATCC (Rockville, […].). The cells are cultured in 5% CO2 at 37° C.
(§2) 20 million tissue culture cells (about 80% confluent) or 200 million WBCs are incubated for 2 or 24 h in culture medium containing 3 μM of an EGFR tyrosine kinase inhibitor or 0.03% DMSO. Total RNA from cell pellet is isolated using the RNeasy kit (Qiagen). mRNA is isolated using the oligotex mRNA purification kit (Qiagen). The quality of the obtained mRNA is tested by real time RT-PCR using beta-Actin primers (PE Applied Biosystems) with an amplicon size of 300 base pairs (bp). The total RNA is used as a reference to calculate the amount of mRNA-enrichment in the oligotex purified samples.
(§3) Probes for the UniGEM hybridization are synthesized by Incyte Genomics (Palo Alto, Calif., USA). For each probe 200 ng mRNA (50 ng/μl) is shipped in dry ice. The results are analyzed using the Expressionist Software Package provided by GeneData.
(§4) Expression profiles (UniGEM V arrays) of 4 tumor cell lines with different EGFR expression status (A431, NCI-H596, NCI-H520 and MDA-MB-468) and of WBCs upon exposure of cells to 3 μM of COMPOUND A for 2 or 24 h are analyzed. As control, cells treated with DMSO for the same time period are used. […] The cDNA array hybridization is repeated with the UniGEM 1 array using the same mRNA (Table 3).

A431 cells [2] = experiment: UniGEM V cDNA array expression profile of A431 cells; format: cell-based, human; details: 3 μM, 24 hours, RNA from Experiment 1
Protocol: as §1, §2, §3, §4

MDA-MB468 = experiment: Real time RT-PCR gene expression in MDA-MB468 cells; format: cell-based, human; details: MDA-MB468, 3 μM, 24 h; relative to DMSO-treated NCI-H520 calibrator
Protocol: 20 million tissue culture cells (about 80% confluent) or 200 million WBCs are incubated for 2 or 24 h in culture medium containing 3 μM of an EGFR tyrosine kinase inhibitor or 0.03% DMSO. Total RNA from cell pellet is isolated using the RNeasy kit (Qiagen). mRNA is isolated using the oligotex mRNA purification kit (Qiagen). The quality of the obtained mRNA is tested by real time RT-PCR using beta-Actin primers (PE Applied Biosystems) with an amplicon size of 300 base pairs (bp). The total RNA is used as a reference to calculate the amount of mRNA-enrichment in the oligotex purified samples. The primers and probes are designed from mRNA sequences within the coding region or in the 3′ untranslated region (Table 2). For real time RT-PCR, RNA concentrations between 1 and 50 ng/reaction are used to obtain signals between 15-35 cycles. For each RNA preparation RT-PCR reactions are performed with and without reverse transcriptase to check for genomic DNA contamination. In all RNA samples tested, genomic DNA contamination is less than 1%. To normalize for variability in the initial concentration and quality of the total RNA, Glyceraldehyde-3-phosphate dehydrogenase (GAPDH) is used as an endogenous reference in all quantification experiments. For RT-PCR a one step, two-enzyme system is chosen. The TaqMan PCR Core Reagent Kit (PE #N808-0228) plus the reverse transcriptase MuLV (PE Biosystems # N808-0018) and RNase inhibitor (Roche Diagnostics # 799 025) are mixed as described in the manufacturers protocol. Triplicate measurements are done for target and for reference reactions. […] RT-PCR reactions are done with RNA concentrations of 2.5, 5, 10, 20, 40 and 80 ng per reaction. […] The ΔCT value is determined by subtracting the average reference CT values from the average target CT values of the three measurements. Relative quantification is performed in triplicates, reference and target, using the RT-PCR protocol described above. […] Expression levels for the three genes, calculated relative to NCI-H520, show big differences between the various cell types (Table 5). […]

EGFR tyrosine kinase = EGFR tyrosine kinase (Homo sapiens, UniProt P00533); details: disclosed in WO 97/02266; cited from earlier work
Sequence of EGFR tyrosine kinase (P00533 669-1210 limits assumed): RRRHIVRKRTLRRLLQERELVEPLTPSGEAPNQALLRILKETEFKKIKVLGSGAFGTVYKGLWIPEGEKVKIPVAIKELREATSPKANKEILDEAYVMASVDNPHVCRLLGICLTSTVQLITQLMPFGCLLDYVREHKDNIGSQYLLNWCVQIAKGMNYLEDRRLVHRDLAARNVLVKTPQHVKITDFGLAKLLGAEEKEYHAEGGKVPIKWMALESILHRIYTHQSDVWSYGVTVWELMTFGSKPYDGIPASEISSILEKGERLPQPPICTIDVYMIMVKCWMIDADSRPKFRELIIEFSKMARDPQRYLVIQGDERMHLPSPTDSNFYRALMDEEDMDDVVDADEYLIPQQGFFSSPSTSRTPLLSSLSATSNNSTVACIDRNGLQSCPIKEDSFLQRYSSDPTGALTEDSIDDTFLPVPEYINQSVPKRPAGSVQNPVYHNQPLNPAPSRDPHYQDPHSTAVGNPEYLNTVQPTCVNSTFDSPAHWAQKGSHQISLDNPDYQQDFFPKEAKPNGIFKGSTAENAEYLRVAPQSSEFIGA

C[C@@H](Nc1ncnc2[nH]c(-c3ccc(O)cc3)cc12)c1ccccc1 [COMPOUND A, (R)-6-(4-hydroxy-phenyl)-4-[(1-phenyl-ethyl)-amino]-7H-pyrrolo[2,3-d]pyrimidine]
Gene induction, Micro Array UniGEM 1: Acute phase serum amyloid A protein (A431 cells [1]; 3 μM, RNA from Experiment 1): 4.4 | Gene induction, Micro Array UniGEM 1: Cathepsin H (A431 cells [1]; 3 μM, RNA from Experiment 1): 2.2 | Gene induction, Micro Array UniGEM 1: Caveolin (A431 cells [1]; 3 μM, RNA from Experiment 1): 3.4 | Gene induction, Micro Array UniGEM 1: Complement component 3 (C3) (A431 cells [1]; 3 μM, RNA from Experiment 1): 3.1 | Gene induction, Micro Array UniGEM 1: Complement cytolysis inibitor (Clusterin) (A431 cells [1]; 3 μM, RNA from Experiment 1): 2.7 | Gene induction, Micro Array UniGEM 1: DNA binding protein inhibitor ID-3 (A431 cells [1]; 3 μM, RNA from Experiment 1): 2.1 | Gene induction, Micro Array UniGEM 1: Extracellular protein S1-5 (A431 cells [1]; 3 μM, RNA from Experiment 1): 3.3 | Gene induction, Micro Array UniGEM 1: TGF-beta induced gene (A431 cells [1]; 3 μM, RNA from Experiment 1): 2.1 | Gene induction, Micro Array UniGEM 1: TRAIL (A431 cells [1]; 3 μM, RNA from Experiment 1): 3.0 | Gene induction, Micro Array UniGEM 1: VAC-beta (annexin VIII) (A431 cells [1]; 3 μM, RNA from Experiment 1): 3.0 | Differential Expression (Balanced): Human D-type cyclin (CCND2) mRNA {IM359412} (A431 cells [1]; GB Acc. No. AA010487, 3 μM, versus DMSO treated cells, negative numbers: repressed genes): −8.2 | Differential Expression (Balanced): ESTs {IM365120} (A431 cells [1]; GB Acc. No. AA025124, 3 μM, versus DMSO treated cells): 2.7 | Differential Expression (Balanced): Human HE4 mRNA for extracellular protease {IM366323} (A431 cells [1]; GB Acc. No. AA025750, 3 μM, versus DMSO treated cells): 2.6 | Differential Expression (Balanced): Human mRNA for precursor of epidermal growth factor receptor {IM469272} (A431 cells [1]; GB Acc. No. AA026089, 3 μM, versus DMSO treated cells): 2.8 | Differential Expression (Balanced): Human cyclin-dependent protein kinase mRNA {IM366824} (A431 cells [1]; GB Acc. No. AA029438, 3 μM, versus DMSO treated cells): 2.8 | Differential Expression (Balanced): Human extracellular protein (S1-5) mRNA {IM470007} (A431 cells [1]; GB Acc. No. AA030000, 3 μM, versus DMSO treated cells): 3.3 | Differential Expression (Balanced): ESTs {IM471869} (A431 cells [1]; GB Acc. No. AA035156, 3 μM, versus DMSO treated cells): 3.0 | Differential Expression (Balanced): Human nucleotide-binding protein mRNA; c {IM376052} (A431 cells [1]; GB Acc. No. AA039353, 3 μM, versus DMSO treated cells, negative numbers: repressed genes): −3.5 | Differential Expression (Balanced): ESTs {IM485336} contains Alu repetitive elements (A431 cells [1]; GB Acc. No. AA039628, 3 μM, versus DMSO treated cells, negative numbers: repressed genes): −6.8 | Differential Expression (Balanced): Human 5′-AMP-activated protein kinase; g {IM376178} (A431 cells [1]; GB Acc. No. AA040600, 3 μM, versus DMSO treated cells, negative numbers: repressed genes): −4.1 | Differential Expression (Balanced): Human mRNA for pancreatic carcinoma marker {IM376296} (Trop-2) (A431 cells [1]; GB Acc. No. AA041250, 3 μM, versus DMSO treated cells): 3.0 | Differential Expression (Balanced): Human complement component 3 (C3) gene {IM485717} (A431 cells [1]; GB Acc. No. AA041549, 3 μM, versus DMSO treated cells): 3.1 | Differential Expression (Balanced): Human annexin VIII mRNA; complete cds. {IM376634} (VAC-beta) (A431 cells [1]; GB Acc. No. AA046102, 3 μM, versus DMSO treated cells): 3.0 | Differential Expression (Balanced): Human mRNA for caveolin {IM488533} (A431 cells [1]; GB Acc. No. AA047243, 3 μM, versus DMSO treated cells): 3.4 | Differential Expression (Balanced): Fibronectin {IM512287} (A431 cells [1]; GB Acc. No. AA057694, 3 μM, versus DMSO treated cells, negative numbers: repressed genes): −8.8 | Differential Expression (Balanced): ESTs {IM377004} (A431 cells [1]; GB Acc. No. AA057780, 3 μM, versus DMSO treated cells): 2.7 | Differential Expression (Balanced): TransformIng growth factor-beta induced gene product (BIGH3) (A431 cells [1]; GB Acc. No. AA057802, 3 μM, versus DMSO treated cells): 2.1 | Differential Expression (Balanced): Human mRNA for cathepsin H (E.C.3.4.22.1) {IM489348} (A431 cells [1]; GB Acc. No. AA058337, 3 μM, versus DMSO treated cells): 2.2 | Differential Expression (Balanced): Human fibronectin gene extra type III re {IM151144} (A431 cells [1]; GB Acc. No. H03907, 3 μM, versus DMSO treated cells, negative numbers: repressed genes): −6.9 | Differential Expression (Balanced): ESTs {IM46265} (A431 cells [1]; GB Acc. No. H09077, 3 μM, versus DMSO treated cells, negative numbers: repressed genes): −21.9 | Differential Expression (Balanced): Human ribosomal protein L5 pseudogene mRNA {IM50482} (A431 cells [1]; GB Acc. No. H17614, 3 μM, versus DMSO treated cells, negative numbers: repressed genes): −3.6 | Differential Expression (Balanced): ESTs {IM172005} (A431 cells [1]; GB Acc. No. H18621, 3 μM, versus DMSO treated cells, negative numbers: repressed genes): −3.1 | Differential Expression (Balanced): Human acute phase serum amyloid A protein {IM161456} (A431 cells [1]; GB Acc. No. H25546, 3 μM, versus DMSO treated cells): 4.4 | Differential Expression (Balanced): Human TNF-related apoptosis inducing ligand TRAIL {IM203132} (A431 cells [1]; GB Acc. No. H54629, 3 μM, versus DMSO treated cells): 4.0 | Differential Expression (Balanced): Human complement cytolysis inhibitor (CLI) mRNA; complete cds (Clusterin) (A431 cells [1]; GB Acc. No. M25915, 3 μM, versus DMSO treated cells): 2.7 | Differential Expression (Balanced): ESTs {248032} (A431 cells [1]; GB Acc. No. N53767, 3 μM, versus DMSO treated cells): 2.6 | Differential Expression (Balanced): Rat N-syndecan mRNA {IM26677} (A431 cells [1]; GB Acc. No. R13994, 3 μM, versus DMSO treated cells): 2.9 | Differential Expression (Balanced): Human fibronectin (fn) 3′ coding region {IM136798} (A431 cells [1]; GB Acc. No. R36450, 3 μM, versus DMSO treated cells, negative numbers: repressed genes): −4.7 | Differential Expression (Balanced): ESTs {IM23605} (A431 cells [1]; GB Acc. No. R39436, 3 μM, versus DMSO treated cells): 2.6 | Differential Expression (Balanced): PUTATIVE LYMPHOCYTE G0/G1 SWITCH PROTEIN 2 {IM67939} (A431 cells [1]; GB Acc. No. T52813, 3 μM, versus DMSO treated cells, negative numbers: repressed genes): −3.3 | Differential Expression (Balanced): ESTs {IM73785} (A431 cells [1]; GB Acc. No. T54672, 3 μM, versus DMSO treated cells): 2.6 | Differential Expression (Balanced): ESTs {IM74546} (A431 cells [1]; GB Acc. No. T59122, 3 μM, versus DMSO treated cells): 2.9 | Differential Expression (Balanced): Human mitosin mRNA; complete cds. {IM113765} (A431 cells [1]; GB Acc. No. T76993, 3 μM, versus DMSO treated cells, negative numbers: repressed genes): −3.0 | Differential Expression (Balanced): DNA-BINDING PROTEIN INHIBITOR ID-3 {IM323946} (A431 cells [1]; GB Acc. No. W46413, 3 μM, versus DMSO treated cells): 2.1 | Differential Expression (Balanced): Human nuclear orphan receptor LXR-alpha {IM357775} (A431 cells [1]; GB Acc. No. W95433, 3 μM, versus DMSO treated cells, negative numbers: repressed genes): −3.0 | Gene induction, Micro Array UniGEM V: Acute phase serum amyloid A protein (A431 cells [2]): 3.3 | Gene induction, Micro Array UniGEM V: Cathepsin H (A431 cells [2]): 2.4 | Gene induction, Micro Array UniGEM V: Complement component 3 (C3) (A431 cells [2]): 3.3 | Gene induction, Micro Array UniGEM V: Complement cytolysis inibitor (Clusterin) (A431 cells [2]): 6.6 | Gene induction, Micro Array UniGEM V: DNA binding protein inhibitor ID-3 (A431 cells [2]): 2.6 | Gene induction, Micro Array UniGEM V: Extracellular protein S1-5 (A431 cells [2]): 2.2 | Gene induction, Micro Array UniGEM V: TGF-beta induced gene (A431 cells [2]): 2.7 | Gene induction, Micro Array UniGEM V: TRAIL (A431 cells [2]): 4.0 | Gene induction, Micro Array UniGEM V: VAC-beta (annexin VIII) (A431 cells [2]): 2.2 | Relative Clusterin expression (MDA-MB468): 32.60 n-fold | Relative TRAIL expression (MDA-MB468): 2.89 n-fold | Relative VAC-beta expression (MDA-MB468): 26.60 n-fold | Inhibition of the EGFR tyrosine kinase (EGFR tyrosine kinase): potent and selective inhibitor
